Reference: patent US20100016435A1, “HYBRID MOLECULES HAVING MIXED VITAMIN D RECEPTOR AGONISM AND HISTONE DEACETYLASE INHIBITORY PROPERTIES” (McGill University, priority 2006, published 2010)

Legend:
[1] = tested on: α-tubulin; test: α-Tubulin acetylation in SCC4 cells, Western blot; assay type: cell-based, human; conditions: for levels of acetylated alpha-tubulin normalized for total alpha-tubulin: 3 15 nM, 36 or 39 10^−6 or 10^−7M, 6 h or 24 h, FIG. 6C
From the text: (§1) FIG. 4 is an illustration of the HDAC inhibitory activity of 3 in the SCC4 cell line. FIG. 4A is an illustration of a western blot of nuclear and cytoplasmic extracts of SCC4 cells treated with vehicle (−), 1, or 3 alone or in combination, as indicated. The 55 kDa band corresponds to the molecular weight of tubulin. FIG. 4B illustrates a western blot probed with an antibody directed against acetylated histone H4 (AcH4) showing the effects of the treatments described in A on acetylation of histone H4. FIG. 4C illustrates western blots of the effects of treatments described in A on levels of total alpha-tubulin (left) and acetylated alpha-tubulin (right).
FIG. 6 is a comparison of the HDAC inhibitory activities of 1, 3, 6, 36 or 39 as assessed by their effects on acetylation of alpha-tubulin. In A, SCC4 cells were incubated with vehicle or compound 1 (10^−6M), 3 (15 nM), 6 (10^−6M) and 36 (10^−6M), as indicated for 6 h and protein extracts were probed for total α-tubulin (Tub.) or acetylated α-tubulin (AcTub.) by Western blotting. Blots for acetylated alpha-tubulin and total alpha-tubulin are shown. In B, SCC4 cells were incubated with vehicle or compound 3 (15 nM), 6 (10^−6M) or 36 (10^−6M) as indicated for 6 h or 24 h and protein extracts were probed for acetylated α-tubulin (AcTub.) by Western blotting. In C, SCC4 cells were incubated with vehicle or compounds 3 (15 nM), 36 (10^−6 or 10^−7M) or 39 (10^−6 or 10^−7M) as indicated for 6 h or 24 h and protein extracts were probed for total α-tubulin (tub.) or acetylated α-tubulin (AcTub.) by Western blotting.
(§2) In preliminary experiments, TSA-inducible protein acetylation was analyzed in nuclear and cytoplasmic extracts of SCC4 cells treated for 6 h with 1, 3, or 1 and 3 and subsequently probed by Western blotting for protein acetylation using an anti-acetyllysine antibody. […] Effects of 3 on histone acetylation specifically, were confirmed by probing for acetylation of histone H4 (FIG. 4B). […] However, it was not clear whether this corresponded to enhanced expression or acetylation. […] This was confirmed by probing cytoplasmic fractions with an antibody that recognized α-tubulin (FIG. 4C). Calcitriol (1) had no effect on the acetylation of α-tubulin, and none of the treatments had any substantial effect on total α-tubulin expression (FIG. 4C).
SCC4 cells were incubated with vehicle or compound as indicated for 6 h and cytoplasmic protein extracts were probed by Western blotting using a specific antibody for acetylated α-tubulin.

[2] = tested on: SCC4 cells; test: Protein acetylation in nuclear and cytoplasmic extracts, Western blot with anti-acetyllysine antibody; assay type: cell-based, human; conditions: 6 h
From the text: as §1, §2

[3] = tested on: histone H4; test: Histone H4 acetylation, Western blot; assay type: cell-based, human; conditions: SCC4 cells, 6 h
From the text: as §1, §2

[4] = tested on: SCC25 cells; test: Antiproliferative activity in SCC25 cells; assay type: cell-based; conditions: 1 at 1 nM or 100 nM; 3 15 nM; combination 3 with 100 nM 1; FIG. 7B
From the text: FIG. 7 is an illustration of the antiproliferative activities of 1 and 3, individually or in combination, in SCC4 cells (A) or in SCC25 cells (B) at the concentrations indicated.

[5] = tested on: SCC4 cells; test: Acidic β-galactosidase activity (marker of autophagy), X-Gal staining and 620 nm measurement; assay type: cell-based, human; conditions: for acidic β-galactosidase staining (X-Gal, pH 4.0), cytochemical: qualitative, FIG. 10A
From the text: FIG. 10 is an illustration of the effects of 1, 3, 1+3 and 6 on the induction of acidic β-galactosidase activity, a marker of autophagy (A); FIG. 10 is an illustration of the effects 1, 3, 1+3 and 6 on the levels of β-galactosidase expression as obtained by measuring the indigo cleavage product of X-Gal at 620 nm (B).
Since it was observed that treatment with 1 could enhance cell death by autophagy (ref. 26), the effects of different treatments on the induction of acidic β-galactosidase activity, a marker of autophagy (FIG. 10A) was tested.

[6] = tested on: SCC4 cells; test: Cell cycle distribution by FACS analysis; assay type: cell-based, human; conditions: 100 nM 1, or 100 nM 1 and 15 nM 3; 72 h
Description: FIG. 11 is an illustration of the results obtained by fluorescence-activated cell sorting (FACS) analysis on the distribution of SCC4 cells in the cell cycle following treatment with vehicle (−), 1, or 1 and 3 together at the concentrations indicated.
The combined effects of 1 and 3 on the distribution of SCC4 cells in the cell cycle were assessed by FACS analysis (FIG. 11). Cells were treated with vehicle, 100 nM 1, or a combination of 100 nM 1 and 15 nM 3 for 72 h, as indicated.

[7] = tested on: SCC4 cells; test: Immunocytochemical and morphological analysis (mitotic catastrophe); assay type: cell-based, human
From the text: FIG. 12 is an illustration of the immunocytochemical analysis of the effects of 1, 3, or 1 and 3 combined on SCC4 cells (A). […] Both phenotypes are characteristics of mitotic catastrophe. The lower panels (B) show cytoplasmic bridges between SCC4 cells treated with 1 and 3, consistent with the formation of the tubulin bridges seen above in A.
Assembly into microtubules is regulated by acetylation. […] Previous studies have shown that microtubule stabilizing agents can induce mitotic catastrophe (ref. 30). […] The formation of intercellular microtubular structures was consistent with observations in the light microscope of numerous intercellular bridges in cells treated with both 1 and 3 (FIG. 12B, arrows), but not in other treatment groups (not shown).

[8] = tested on: SCC4 cells; conditions: cited from earlier work
[9] = tested on: SCC25 cells; conditions: cited from earlier work
[10] = tested on: SCC4 cells; test: Antiproliferative activity in SCC4 cells
Description: Tissue culture media was changed daily and fresh 1, 6 or vehicle were added.

[11] = molecular target: T1, human VDR (Homo sapiens, UniProt P11473); test: Reporter gene assay (VDRE-luciferase) in transiently transfected COS7 cells; assay type: cell-based
T1 construct: expressed in transfected cells; host or cells: COS7
T1 sequence (P11473 1-427): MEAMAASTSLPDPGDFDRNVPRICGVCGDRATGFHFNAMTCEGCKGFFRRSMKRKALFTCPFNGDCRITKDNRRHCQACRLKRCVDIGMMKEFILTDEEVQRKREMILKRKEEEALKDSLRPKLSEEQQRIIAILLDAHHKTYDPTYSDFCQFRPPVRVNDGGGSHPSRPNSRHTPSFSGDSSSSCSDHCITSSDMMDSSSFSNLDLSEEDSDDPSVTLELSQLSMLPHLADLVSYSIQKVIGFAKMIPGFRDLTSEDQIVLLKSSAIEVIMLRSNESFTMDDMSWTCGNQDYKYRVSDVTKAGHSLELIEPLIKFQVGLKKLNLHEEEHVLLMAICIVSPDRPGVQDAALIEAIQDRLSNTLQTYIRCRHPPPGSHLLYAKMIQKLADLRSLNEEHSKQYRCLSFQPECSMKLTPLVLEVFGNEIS
Description: FIG. 2 is an illustration of the vitamin D receptor agonist activity of 6 using a reporter gene assay in transiently transfected COS7 cells.
Hybrid molecule 6 was tested for calcitriol agonist activity using a reporter gene assay under standard conditions.^25,26 COS7 cells were transiently co-transfected with a plasmid expression vector for the human VDR, a plasmid vector expressing bacterial β-galactosidase from a constitutively active promoter (as an internal control for transfection efficiency), and a vector containing a luciferase reporter gene, under control of a previously described synthetic promoter composed of three high affinity VDREs (Vitamin D Response Elements) placed immediately upstream of a truncated promoter region from the herpes simplex virus thymidine kinase gene.^25 Cells were left overnight in the presence of DNA and transfection reagent (lipofectamine). The media were changed and cells were incubated in fresh media containing either vehicle (DMSO), 1 (100 nM), 3 (15 nM), 1 and 3 combined (100 nM/15 nM) or 6 (100 nM), and incubated a further 36 h.

[12] = tested on: HDAC; test: Colorimetric HDAC assay with nuclear extracts of SCC4 cells; assay type: biochemical, human
Description: FIG. 5 is a comparison of the capability of 3 and 6 (20 nM and 200 nM) in blocking deacetylation of a substrate that absorbs at 405 nm in its deacetylated form.
Hybrid molecule 6 was tested for HDAC inhibitory activity using a colorimetric assay as illustrated in FIG. 5. Nuclear extracts of SCC4 cells were incubated with vehicle, 3 or 6 in the presence of substrate for 60 min at 37° C. Following incubation with developer (1 min.), the absorbance was measured at 405 nm.

[13] = tested on: PC3; test: Antiproliferative activity in PC3 prostate cancer cells; assay type: cell-based; conditions: PC3, data not shown
[14] = tested on: Du145; test: Antiproliferative activity in Du145 prostate cancer cells; assay type: cell-based; conditions: Du145, data not shown
[15] = tested on: MCF-7 breast cancer cells; test: Cell viability, trypan blue dye exclusion assay; assay type: cell-based; conditions: 24 h; 6 at 10^−7 or 10^−6M versus 1 at 10^−6M or 1 and 3; FIG. 9A
Description: (§3) FIG. 9 is an illustration of the effects of 1, 3, 1+3, 6 and 36 administered at the concentrations indicated on cell viability in two models. The viability of MCF-7 breast cancer cells was monitored after 24 h of incubation using a trypan blue dye exclusion assay (A).
(§4) The effect of 1, 3, 1+3, 6 and 36 on cell viability was tested in two models. The viability of MCF-7 breast cancer cells was monitored after 24 h of incubation using a trypan blue dye exclusion assay (FIG. 9A). […] The effects of 100 nM 1, 15 nM 3 (TSA), 1 and 3 combined (100 nM/15 nM) and 100 nM 6 (hybrid molecule) on cell viability were tested by screening for induction of markers of apoptotic cell death. Annexin V staining was screened by FACS analysis as in Tavera-Mendoza et al.^26 While all treatments induced modest increases in annexin V staining, apoptosis could be excluded as the major cause of cell death (FIG. 9B).

[16] = tested on: SCC4 cells; test: Annexin V staining by FACS (apoptotic cell death); assay type: cell-based, human; conditions: after pretreatment with UV light
Description: as §3, §4

Compound: C[C@H](CCCC(=O)NO)[C@H]1CC[C@H]2/C(=C/C=C3C[C@@H](O)C[C@H](O)C3)CCC[C@]12C [compound 36]
- levels of acetylated alpha-tubulin normalized for total alpha-tubulin [1]: observed only in cells treated with 3
- tubulin acetylation ([1]; 10^−6 M, 6 or 24 h, FIG. 6B): no effect

Compound: C=C1/C(=C\C=C2/CCC[C@@]3(C)C2CCC3[C@H](C)CCCC(C)(C)O)C[C@@H](O)C[C@@H]1O (stereo partly drawn) [compound 1, 1α,25-Dihydroxyvitamin D3]
- levels of a product of ~70 kDa ([2]; cytoplasmic extracts): modestly but consistently enhanced
- acetylation of low molecular weight nuclear proteins ([2]; nuclear extracts): no effect
- histone H4 acetylation [3]: little effect
- acetylation of α-tubulin ([1]; cytoplasmic fractions, FIG. 4C): no effect
- SCC25 proliferation / sensitivity [4]: relatively more sensitive
- acidic β-galactosidase staining (X-Gal, pH 4.0), cytochemical [5]: generally enhanced
- proportion of cells in G1 [6]: augmented
- proportion of cells in G2/M [6]: augmented
- proportion of cells in S phase [6]: substantially diminished
- cell morphology ([7]; FIG. 12): did not differ from control cells
- induction of mitotic catastrophe ([7]; SCC4 cells): not 1 or 3 alone
- resistance of SCC4 to antiproliferative effects [8]: resistant
- cell cycle arrest [9]: G0/G1 arrest
- SCC4 proliferation ([10]; 1 nM or 100 nM 1, alone or with 15 nM 3, FIG. 7A): modest effects

Compound: C=C1/C(=C\C=C2/CCC[C@@]3(C)C2CCC3[C@H](C)/C=C/C=C/C(O)(CC)CC)C[C@@H](O)C[C@@H]1O (stereo partly shown) [compound 4, EB1089]
- expression from the internal control plasmid (β-galactosidase) ([11]; COS7 cells): modestly enhanced expression

Compound: CC(/C=C/C(=O)NO)=C\[C@@H](C)[C@H]1CC[C@H]2/C(=C/C=C3C[C@@H](O)C[C@H](O)C3)CCC[C@]12C [compound 6, (2E,4E,6R)-6-[(1R,3R,7E,17β)-1,3-dihydroxy-9,10secoestra-5,7-dien-17-yl]-N-hydroxy-4-methylhepta-2,4-dienamide]
- reporter gene activity (calcitriol agonist activity) ([11]; COS7, 36 h, 1 100 nM, 3 15 nM, 6 100 nM, not normalized): essentially identical to that of 1
- tubulin acetylation ([1]; 1 μM, 6 h, FIG. 6A): marked tubulin acetylation
- tubulin acetylation ([1]; after 24 h, FIG. 6B): remains elevated
- fold less potent than TSA (3) ([12]; HDAC inhibition): about 10 fold
- inhibiting HDAC activity, compared with 3 ([12]; equimolar concentrations (20 nM), 60 min at 37° C.): less effective
- antiproliferative activity [13]: similar
- antiproliferative activity [14]: similar
- cell death (viability) [15]: markedly more cell death
- annexin V staining versus 3, 1 or 1+3 [16]: substantially higher levels of apoptosis
- levels of autophagy ([5]; cytochemical and quantitative analysis): elevated levels of autophagy
- increase in β-galactosidase expression versus 1 or 1+3 ([5]; indigo cleavage product of X-Gal at 620 nm, FIG. 10B): ~30%
- acidic β-galactosidase staining (X-Gal, pH 4.0), cytochemical [5]: higher percentage of cells that stained intensely
- inhibition of SCC4 proliferation ([10]; 96 h, media and compound changed daily, FIG. 8A): greater efficacy than 1

Compound: C[C@H](CCCCC(=O)NO)[C@H]1CC[C@H]2/C(=C/C=C3C[C@@H](O)C[C@H](O)C3)CCC[C@]12C [compound 39]
- levels of acetylated alpha-tubulin normalized for total alpha-tubulin [1]: observed only in cells treated with 3
